Assays:
DNA-PKcs = biological target: T1, DNA-PKcs (Homo sapiens, UniProt P78527); experiment: DNA-PKcs activation in MCF7 cells, immunoblot for phosphorylated Ser2056; assay type: cell-based; conditions: data not shown
T1 construct: endogenous in cells; host or cells: MCF7 (ATCC)
Procedure: MCF7 cells were obtained from the ATCC. MCF7 cells in G0 were treated with varying doses of H2O2 (FIG. 1). The cells were examined while in the G0 phase of their life cycle to mimic the post-mitotic state of cells in vivo. Low passage MCF-7 cells in G0 were exposed to varying concentrations of H2O2 for 60 minutes with or without Euk-134 or ionizing radiation (5 Gy). For Western blot analysis of DNA-PKcs activation and the activation of other signaling pathways in this study, the following antibodies were used: ACC1 (Cell Signaling); p-ACC1 (Upstate); AMP-activated protein kinase (AMPK; Cell Signaling); p-AMPK(T172) (Cell Signaling); DNA-PK (Lab Vision); p53 (Novocastra); p-DNA-PK(S2056) (Abeam); p-p53(S15) (Cell Signaling); γ-H2AX (Upstate); 53BP1 (Novus Biologicals).
Activation of DNA-PKcs was visualized by immunoblotting cell lysates with antibody specific for phosphorylated Ser2056, which is autophosphorylated during DNA-PKcs activation (Chen et al., J. Biol. Chem. 280: 14709-15 (2005)) (FIG. 1). […] Instead, H2O2 increased DNA-PKcs activation, and such activation was abrogated by the antioxidant Euk-134 (FIG. 1), a potent synthetic superoxide dismutase and catalase mimetic (Chatterjee, Am. J. Nephrol. 24: 165-77 (2004)).
MCF7 cells were then cultured in 25 mM glucose. Aliquots of the cultured MCF7 cells were treated with ionizing radiation and/or the DNA-PKcs-specific inhibitor NU7026. Treatment with glucose and ionizing radiation increased DNA-PKcs phosphorylation (data not shown). […] The basal activity of DNA-PKcs in MCF-7 cells in 25 mM glucose was detectable even in the absence of ionizing radiation, but this basal activity was suppressed with the DNA-PKcs-specific inhibitor NU7026 (data not shown).

AMPK [1] = experiment: AMPK activation in C2C12 cells; assay type: cell-based
Procedure: Expression of PGC-1α (FIGS. 12-14 and 49) can be induced by multiple proteins, including the energy sensor AMPK and the longevity protein Sirt1. Nutrient deprivation stimulates AMPK activity due to increasing AMP/ATP ratios. AMPK is activated by LKB1 kinase. Alternately, AMPK is also activated by a Ca^2+/calmodulin-dependent protein kinase (CaMK) without AMP. In order to test which upstream kinase plays a major role for AMPK activation after DNA-PKcs inhibition, C2C12 cells were treated with NU7026 in the presence or absence of a known CaMK chemical inhibitor ST0609. […] This raised the possibility that DNA-PKcs suppresses LKB1 and subsequently AMPK.

Sirt1 and PGC-1α = Sirt1 and PGC-1α expression in C2C12 myoblasts; assay type: cell-based
Procedure: (§1) Increased mitochondrial function boosts energy production and physical endurance. […] Further tests were therefore conducted to ascertain whether DNA-PKcs inhibitor elevates mitochondrial biogenesis and expression of PGC-1α and Sirt, which are important for mitochondrial biogenesis. […] It is important to note that only 2.5 μM of NU7026 was required to induce a similar level of Sirt1 to that induced by 25-50 μM Resveratrol, a well-known, potent Sirt1 activator.

C2C12 cells = experiment: Mitochondrial DNA copy number in C2C12 cells; assay type: cell-based; conditions: C2C12 cells, 2.5 μM, FIG. 49C
Procedure: Quantitative Real-Time PCR was used to assess the relative amounts of nuclear DNA and mtDNA, to permit assessment of the ratio of mtDNA to nucleic DNA, which reflects the tissue concentration of mitochondria per cell. Muscle tissues were homogenized and digested with Proteinase K overnight in a lysis buffer for DNA extraction by conventional phenol-chloroform method. Quantitative PCR was performed using the following primers: […]
as §1, with “activator. In FIG. 49C, mitochondrial DNA copy number increased (>1.8 fold) in C2C12 cells after 2.5 μM NU7026 treatment.” for “activator.”

LKB1 = LKB1 IP kinase assay of muscle of treated mice; assay type: in vivo; conditions: mice treated with a low-dose, data not shown
Forced swim test (FST) = assay type: in vivo, mice; conditions: data not shown
Procedure: Elevated plus maze tests, light/dark chamber tests, forced swim tests (FST) and hot plate tests were performed as described earlier.

AMPK [2] = experiment: AMPK activation in mouse embryonic fibroblasts (wild-type, DNA-PK null, LKB1-null); assay type: cell-based
From the text: The hypothesis that DNA-PKcs inhibition/deficiency induces activation of the LKB1-AMPK pathway was further tested using DNA-PK^−/− (null) mouse embryonic fibroblasts (MEFs) and LKB1-null MEFs treated with NU7026.

[3] = Blood-brain barrier penetration inferred from behavioural effects; assay type: in vivo, mice; conditions: inferred from decreased anxiety/depression at a low-dose
From the text: For any central nervous system drugs, a major rate-limiting step for uptake into the brain is BBB permeability. […] The BBB is an essential physiological barrier for the maintenance and regulation of brain function. It is comprised of brain microvascular endothelial cells that are connected by tight junctions. This transvascular route to the brain is impenetrable to the majority of drugs. Enhanced BBB permeability is obtained, for example, by increasing the lipid solubility of the water-soluble molecules.

PI3K = conditions: related kinase, selectivity; cited from earlier work
MCF7 cells = experiment: ATP level in MCF7 cells; assay type: cell-based; conditions: 1 and 2.5 μM, FIG. 20
Procedure: The level of ATP and the ADP/ATP ratio in cells were determined using an
ENLITEN ATP assay kit (Promega) and ApoGlow assay kit (Cambrex), respectively. […] To determine whether the AMPK-inhibitory function of DNA-PKcs is cell autonomous, quiescent MCF7 cells were treated with 1 and 2.5 μM NU7026.

[4] = system: mouse embryonic fibroblasts and Chinese hamster ovary cells; conditions: Veuger et al 2003; Griffin et al. 2005; cited from earlier work

## O=c1cc(N2CCOCC2)oc2c1ccc1ccccc12 [NU7026, 2-(morpholin-4-yl)-benzo[h]chomen-4-one]
DNA-PKcs; MCF7 cells in 25 mM glucose
  induction of DNA-PKcs activation by ionizing radiation: able to depress the induction of DNA-PKcs activation
DNA-PKcs; MCF-7 cells in 25 mM glucose, no ionizing radiation
  basal activity of DNA-PKcs: suppressed
AMPK [1]; C2C12 cells, absence of STO609, FIG. 50
  AMPK activation: activated
AMPK [1]; C2C12 cells, presence of CaMK inhibitor STO609, FIG. 50
  AMPK activation: still observed
AMPK [1]; differentiated C2C12 myoblasts, data not shown
  AMPK activation: also activated AMPK
Sirt1 and PGC-1α
  concentration required to induce a similar level of Sirt1: 2.5 µM
Sirt1 and PGC-1α; FIG. 49
  PGC-1α and Sirt1 expression: dramatically elevated
C2C12 cells
  mitochondrial DNA copy number increase: > 1.8 fold
LKB1
  LKB1 activity in muscles: strong induction of LKB1 activity
Forced swim test (FST)
  immobility in the forced swim test: decreased immobility
AMPK [2]; DNA-PK−/− MEFs, FIG. 52A
  AMPK activation: significantly enhanced
AMPK [2]; LKB1-null MEFs, FIG. 52B
  AMPK activation: not in LKB1-null MEFs
AMPK [2]; wild-type MEFs, FIG. 52
  AMPK activation: activated
[3]
  blood-brain barrier (BBB) penetration: can penetrate the blood-brain barrier (BBB) efficiently
PI3K
  IC50: 13 µM
MCF7 cells
  ATP levels: without significantly affecting ATP levels
[4]
  sensitization to radiation in vitro: sensitize mouse embryonic fibroblasts and Chinese hamster ovary cells to radiation

From patent US20100130597A1, “DNA-PKCS MODULATES ENERGY REGULATION AND BRAIN FUNCTION” (The United State of America, as represented by the …, priority 2007, published 2010)
